From publication PMC10178848, “Modulating fast skeletal muscle contraction protects skeletal muscle in animal models of Duchenne muscular dystrophy” (The Journal of Clinical Investigation, 2023) come the findings set out here.

Molecules are shown by their SMILES. pIC50: −log10 of the molar value.

The target in data set [1] is T1, ADCK3 (Homo sapiens, UniProt Q8NI60).
T1 construct: purchased Eurofins DiscoverX (KINOMEscan; SAFETYscan E/IC50 ELECT)
As to the kind of experiment: KINOMEscan scanEDGE. Format: binding. The conditions noted are these: 20 uM.

In data set [2] the target is Rabbit Cardiac myofibrils. As to the kind of experiment: Myofibril ATPase, rabbit cardiac. As to conditions: 25% MHCα, 75% MHC β, at pCa 50. Format: biochemical.
In data set [3] the target is T2, PAK4 (Homo sapiens, UniProt O96013).
T2 construct: purchased Eurofins DiscoverX (KINOMEscan; SAFETYscan E/IC50 ELECT)
Nature of the data set: KINOMEscan scanEDGE. Type of data set: binding. As to conditions: 20 uM.

Data set [4] has as its target T3, SNARK (Homo sapiens, UniProt Q9H093).
T3 construct: purchased Eurofins DiscoverX (KINOMEscan; SAFETYscan E/IC50 ELECT)
Nature of the data set: KINOMEscan scanEDGE. Type of data set: binding. The conditions noted are these: 20 uM.

For data set [5], the target named is T4, PDPK1 (Homo sapiens, UniProt O15530).
T4 construct: purchased Eurofins DiscoverX (KINOMEscan; SAFETYscan E/IC50 ELECT)
T4 sequence (O15530 whole entry): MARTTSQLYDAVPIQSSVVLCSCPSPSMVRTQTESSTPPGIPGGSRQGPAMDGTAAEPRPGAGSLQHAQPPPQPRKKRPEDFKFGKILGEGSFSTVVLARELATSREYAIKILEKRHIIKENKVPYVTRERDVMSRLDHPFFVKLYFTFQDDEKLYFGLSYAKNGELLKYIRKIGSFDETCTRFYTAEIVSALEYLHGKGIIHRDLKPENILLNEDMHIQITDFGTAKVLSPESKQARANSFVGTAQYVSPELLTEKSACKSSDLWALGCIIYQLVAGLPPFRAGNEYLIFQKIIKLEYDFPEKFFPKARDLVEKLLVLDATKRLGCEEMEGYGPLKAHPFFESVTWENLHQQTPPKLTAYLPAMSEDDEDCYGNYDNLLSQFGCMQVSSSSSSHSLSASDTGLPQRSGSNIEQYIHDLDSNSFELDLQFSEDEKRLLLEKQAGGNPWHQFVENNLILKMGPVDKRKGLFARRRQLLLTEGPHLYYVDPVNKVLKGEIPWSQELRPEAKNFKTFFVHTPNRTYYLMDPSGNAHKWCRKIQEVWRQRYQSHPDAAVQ
Nature of the data set: KINOMEscan scanEDGE. The conditions noted are these: 20 uM. Type of data set: binding.

The target in data set [6] is T5, PIM2 (Homo sapiens, UniProt Q9P1W9).
T5 construct: purchased Eurofins DiscoverX (KINOMEscan; SAFETYscan E/IC50 ELECT)
T5 sequence (Q9P1W9 whole entry): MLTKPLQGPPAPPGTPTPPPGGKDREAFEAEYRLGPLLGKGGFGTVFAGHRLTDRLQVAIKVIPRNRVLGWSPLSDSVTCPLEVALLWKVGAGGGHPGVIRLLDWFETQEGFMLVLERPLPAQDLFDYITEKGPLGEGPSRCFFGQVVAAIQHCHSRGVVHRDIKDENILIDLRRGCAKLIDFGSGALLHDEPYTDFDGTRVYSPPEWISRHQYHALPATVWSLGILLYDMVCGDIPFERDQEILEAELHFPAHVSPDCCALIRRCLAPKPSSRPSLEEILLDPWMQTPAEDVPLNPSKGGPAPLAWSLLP
Nature of the data set: KINOMEscan scanEDGE. Type of data set: binding. As to conditions: 20 uM.

In data set [7] the target is T6, DYRK1B (Homo sapiens, UniProt Q9Y463).
T6 construct: purchased Eurofins DiscoverX (KINOMEscan; SAFETYscan E/IC50 ELECT)
T6 sequence (Q9Y463 whole entry): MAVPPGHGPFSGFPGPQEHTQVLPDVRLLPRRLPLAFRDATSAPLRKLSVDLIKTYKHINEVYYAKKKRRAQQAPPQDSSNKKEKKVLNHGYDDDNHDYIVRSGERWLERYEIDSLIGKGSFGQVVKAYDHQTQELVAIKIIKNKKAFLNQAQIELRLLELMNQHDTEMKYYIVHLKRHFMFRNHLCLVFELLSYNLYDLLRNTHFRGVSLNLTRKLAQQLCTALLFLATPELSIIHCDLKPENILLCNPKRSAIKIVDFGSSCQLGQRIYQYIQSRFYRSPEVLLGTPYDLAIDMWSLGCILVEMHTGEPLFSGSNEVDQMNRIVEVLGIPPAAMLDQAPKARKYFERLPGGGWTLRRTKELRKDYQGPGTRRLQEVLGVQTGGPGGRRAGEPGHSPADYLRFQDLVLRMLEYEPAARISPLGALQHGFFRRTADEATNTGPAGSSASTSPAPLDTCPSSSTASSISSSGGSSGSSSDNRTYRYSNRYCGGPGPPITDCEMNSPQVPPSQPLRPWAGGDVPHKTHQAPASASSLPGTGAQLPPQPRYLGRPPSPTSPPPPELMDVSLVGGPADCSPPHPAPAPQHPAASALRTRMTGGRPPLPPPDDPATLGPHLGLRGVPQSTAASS
As to the kind of experiment: KINOMEscan scanEDGE. As to conditions: 20 uM. Format: binding.

For data set [8], the system named is WT or mdx mice. As to the kind of experiment: Forelimb grip strength. Format: in vivo, mouse. The conditions noted are these: single doses up to 10 mg/kg, 4 hours after oral administration. As for the experimental part: Prior to in vivo assessments, mice were dosed PO after a 2-hour fast with 10 mL/Kg suspensions. Grip strength and rotarod assessments were performed masked, 4 hours after dosing using published protocols ([66], [67]). Grip strength was performed with a Columbus Instruments Rodent Force Meter. Forepaw strength represented the average of 5 trials with 30-second rest periods, normalized by BW. Rotarod endurance was performed with a Columbus Instruments RotaMax. Mice were placed on the device drum at 1 rpm, which accelerated 1 rpm every 3 seconds to 12 rpm and a maximal time of 500 seconds. This was repeated 3 times with a 3-minute rest and total time reported. Voluntary wheel running performance was assessed with a customized system. Timestamped RPMs were measured 24 hours per day by infrared sensors, and a custom software calculated distance. Whole-body EBD was visualized after intravenous administration ([35]). EBD in PBS at 10 mg/mL was sterile filtered, and 50 μL/10 g BW was injected via tail vein. After 24 hours, animals were sacrificed, skin was removed and fixed in 4% formalin for 24 hours, and photographed using a Leica/Lumix camera.

Data set [9] deals with T7, JNK1 (Homo sapiens, UniProt P45983).
T7 construct: purchased Eurofins DiscoverX (KINOMEscan; SAFETYscan E/IC50 ELECT)
T7 sequence (P45983 whole entry): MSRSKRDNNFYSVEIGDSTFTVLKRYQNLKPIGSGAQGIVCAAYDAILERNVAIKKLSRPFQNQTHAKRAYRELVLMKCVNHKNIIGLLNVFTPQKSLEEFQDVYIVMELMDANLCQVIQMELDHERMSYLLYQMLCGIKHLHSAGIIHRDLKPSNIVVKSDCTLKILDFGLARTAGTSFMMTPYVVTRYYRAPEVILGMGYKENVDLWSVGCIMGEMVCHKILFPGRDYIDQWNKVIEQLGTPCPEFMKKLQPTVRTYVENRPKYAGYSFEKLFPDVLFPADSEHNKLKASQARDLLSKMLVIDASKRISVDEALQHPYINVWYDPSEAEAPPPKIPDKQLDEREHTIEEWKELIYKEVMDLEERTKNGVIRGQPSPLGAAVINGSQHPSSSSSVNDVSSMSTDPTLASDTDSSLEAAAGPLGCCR
Nature of the data set: KINOMEscan scanEDGE. Format: binding. As to conditions: 20 uM.

The target of data set [10] is T8, SRC (Homo sapiens, UniProt P12931).
T8 construct: purchased Eurofins DiscoverX (KINOMEscan; SAFETYscan E/IC50 ELECT)
T8 sequence (P12931 whole entry): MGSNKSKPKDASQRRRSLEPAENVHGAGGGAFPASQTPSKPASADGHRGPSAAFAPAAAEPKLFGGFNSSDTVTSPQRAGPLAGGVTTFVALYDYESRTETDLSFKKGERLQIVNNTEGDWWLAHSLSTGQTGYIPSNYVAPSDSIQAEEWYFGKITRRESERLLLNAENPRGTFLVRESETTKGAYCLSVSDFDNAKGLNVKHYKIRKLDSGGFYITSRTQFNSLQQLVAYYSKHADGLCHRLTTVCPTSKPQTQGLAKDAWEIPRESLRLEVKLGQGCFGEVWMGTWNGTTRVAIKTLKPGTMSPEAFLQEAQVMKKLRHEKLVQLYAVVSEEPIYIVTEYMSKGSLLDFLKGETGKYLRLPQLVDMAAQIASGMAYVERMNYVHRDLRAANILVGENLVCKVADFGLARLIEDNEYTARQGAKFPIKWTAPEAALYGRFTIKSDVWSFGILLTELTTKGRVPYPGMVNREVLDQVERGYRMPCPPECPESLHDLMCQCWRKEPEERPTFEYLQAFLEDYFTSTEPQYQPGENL
Nature of the data set: KINOMEscan scanEDGE. Format: binding. The conditions noted are these: 20 uM.

The subject of data set [11] is mixed fast/slow mouse soleus muscle. Nature of the data set: Ex vivo isometric force, mouse soleus. The conditions noted are these: 31% type I, 60% type IIa/IIx. As for the experimental part:
Isometric force was measured ex vivo in mouse EDL and soleus muscle. EDL muscle eccentric injury was based on published protocols ([30]), with degree of lengthening and stimulation modified to yield a uniform drop in mdx isometric and peak force over 10 contractions. After isolation, muscle was mounted via 5-0 suture to a combination servomotor/force transducer (300C-LR, Aurora) between 2 electrodes connected to a stimulator (701C, Aurora) in Ringers solution at 27°C with continuously infused CO2/O2 gas mixture. Experiments were recorded with custom MATLAB software via a National Instruments PCIe-6321 board and 2090A BNC connector. Muscles were preincubated for 60 minutes with DMSO (final 0.1%)/compound before 10 eccentric contractions, 1 minute apart, with 100 milliseconds of isometric stimulation at 100 Hz and active lengthening of 0.1 L0 at a rate of 2 L0/s. After lengthening, muscles were held at 1.1 L0 with stimulation for 100 milliseconds (Supplemental Figure 2A).

The target in data set [12] is T9, LCK (Homo sapiens, UniProt P06239).
T9 construct: purchased Eurofins DiscoverX (KINOMEscan; SAFETYscan E/IC50 ELECT)
T9 sequence (P06239 whole entry): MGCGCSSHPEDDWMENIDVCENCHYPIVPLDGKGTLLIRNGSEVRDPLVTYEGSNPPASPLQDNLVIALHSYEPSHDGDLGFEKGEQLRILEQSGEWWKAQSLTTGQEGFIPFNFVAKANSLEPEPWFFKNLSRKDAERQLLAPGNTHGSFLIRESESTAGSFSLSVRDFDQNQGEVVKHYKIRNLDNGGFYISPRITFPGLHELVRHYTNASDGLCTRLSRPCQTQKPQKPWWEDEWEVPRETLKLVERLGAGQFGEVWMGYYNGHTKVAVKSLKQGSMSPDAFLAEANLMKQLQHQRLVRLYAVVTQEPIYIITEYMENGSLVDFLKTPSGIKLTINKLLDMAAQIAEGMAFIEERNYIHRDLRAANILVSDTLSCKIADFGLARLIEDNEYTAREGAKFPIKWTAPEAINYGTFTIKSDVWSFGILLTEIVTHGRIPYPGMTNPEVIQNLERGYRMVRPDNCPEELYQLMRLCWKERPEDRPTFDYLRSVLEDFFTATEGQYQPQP
As to the kind of experiment: SAFETYscan Binding. Further details: dose or concentration left out as unconfirmed. As to conditions: read-out: Max Response (%) (Antagonist). How it is done:
(§1) The specificity of EDG-5506 for fast skeletal myosin over other, unrelated proteins was confirmed using two off-target binding and activity screens. […] A second off-target panel (SAFETYscan E/IC50 ELECT, Eurofins DiscoverX) tested in vitro enzyme activity against 78 proteins, including GPCR, ion channel, kinases, nuclear hormone receptors, and transporters. In all assays, the IC50 of EDG-5506 was more than 10 μM (Supplemental Data File 1).

Data set [13] concerns the target T10, VEGFR2 (Homo sapiens, UniProt P35968).
T10 construct: purchased Eurofins DiscoverX (KINOMEscan; SAFETYscan E/IC50 ELECT)
As to the kind of experiment: SAFETYscan Binding. Also noted: dose or concentration left out as unconfirmed. The conditions noted are these: read-out: Max Response (%) (Antagonist). As for the experimental part: as §1

Data set [14] concerns the target T11, ROCK1 (Homo sapiens, UniProt Q13464).
T11 construct: purchased Eurofins DiscoverX (KINOMEscan; SAFETYscan E/IC50 ELECT)
As to the kind of experiment: SAFETYscan Binding. Also noted: dose or concentration left out as unconfirmed. As to conditions: read-out: Max Response (%) (Antagonist). How it is done:
as §1

Data set [15] deals with T12, INSR (Homo sapiens, UniProt P06213).
T12 construct: purchased Eurofins DiscoverX (KINOMEscan; SAFETYscan E/IC50 ELECT)
Nature of the data set: SAFETYscan Binding. Further details: dose or concentration left out as unconfirmed. As to conditions: read-out: Max Response (%) (Antagonist). As for the experimental part: as §1

The test system of data set [16] is DBA/2J mdx mouse. Nature of the data set: 12-week dosing in DBA/2J mdx mice (fibrosis). Format: in vivo. As to conditions: 12 weeks, chow. From the text:
C57BL/6 (stock no. 000664), C57BL/10J (stock no. 000665, control for mdx experiments), C57BL/10ScSn-Dmd^mdx/J (mdx, stock no. 001801), and D2.B10 (DBA/2-congenic) Dmd^mdx (DBA/2J mdx, stock no. 013141) mice were from The Jackson Laboratory. Sprague-Dawley rats were purchased from Charles River Laboratories. For ex vivo experiments, mice were 10–16 weeks old. For in situ experiments, mice were 8–14 weeks of age. For in vivo chronic dosing studies, mdx and DBA/2J mdx were 4–5 weeks of age at study start. Dosing was via a 10 mL/kg suspension (1% methyl cellulose, 0.1% Tween 80 in water). For studies in 14-day-old preweaning mice, PO dosing was via syrup suspension (3 mg/kg/d). […]
For sterile muscle injury, mice were anesthetized with isoflurane and 50 μL cardiotoxin (12 × 10^–6 M, 217503, Millipore) injected in the TA muscle. […] 8 μm cryosections were cut and stained with H&E. For each analysis, more than 10 slides (per condition/group) containing 6 muscle sections/sample were used, and myofibers in the injured area were counted and measured with a Mirax digital scanner and HALO software ([68]). […] Image analysis was performed using ImarisX64 software (Bitplane AG), and fiber sizing was calculated using minimal Feret’s diameter ([69]). […] Fiber type, size, and central nucleation were quantified with analysis via SMASH ([70]) and ImageJ (NIH). […]

T1 sequence (Q8NI60 163-647): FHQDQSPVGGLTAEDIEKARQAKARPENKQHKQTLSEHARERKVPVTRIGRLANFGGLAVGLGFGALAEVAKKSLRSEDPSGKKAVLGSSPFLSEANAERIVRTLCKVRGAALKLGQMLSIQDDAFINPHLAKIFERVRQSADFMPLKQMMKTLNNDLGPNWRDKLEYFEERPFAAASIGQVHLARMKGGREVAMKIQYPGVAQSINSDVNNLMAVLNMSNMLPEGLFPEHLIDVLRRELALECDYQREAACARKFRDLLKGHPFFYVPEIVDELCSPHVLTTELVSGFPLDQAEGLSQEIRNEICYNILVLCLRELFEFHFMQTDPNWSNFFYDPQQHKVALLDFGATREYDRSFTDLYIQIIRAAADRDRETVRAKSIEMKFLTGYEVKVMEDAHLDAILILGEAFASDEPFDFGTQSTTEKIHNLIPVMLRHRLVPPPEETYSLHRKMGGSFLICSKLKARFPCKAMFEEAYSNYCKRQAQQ
T11 sequence (Q13464 whole entry): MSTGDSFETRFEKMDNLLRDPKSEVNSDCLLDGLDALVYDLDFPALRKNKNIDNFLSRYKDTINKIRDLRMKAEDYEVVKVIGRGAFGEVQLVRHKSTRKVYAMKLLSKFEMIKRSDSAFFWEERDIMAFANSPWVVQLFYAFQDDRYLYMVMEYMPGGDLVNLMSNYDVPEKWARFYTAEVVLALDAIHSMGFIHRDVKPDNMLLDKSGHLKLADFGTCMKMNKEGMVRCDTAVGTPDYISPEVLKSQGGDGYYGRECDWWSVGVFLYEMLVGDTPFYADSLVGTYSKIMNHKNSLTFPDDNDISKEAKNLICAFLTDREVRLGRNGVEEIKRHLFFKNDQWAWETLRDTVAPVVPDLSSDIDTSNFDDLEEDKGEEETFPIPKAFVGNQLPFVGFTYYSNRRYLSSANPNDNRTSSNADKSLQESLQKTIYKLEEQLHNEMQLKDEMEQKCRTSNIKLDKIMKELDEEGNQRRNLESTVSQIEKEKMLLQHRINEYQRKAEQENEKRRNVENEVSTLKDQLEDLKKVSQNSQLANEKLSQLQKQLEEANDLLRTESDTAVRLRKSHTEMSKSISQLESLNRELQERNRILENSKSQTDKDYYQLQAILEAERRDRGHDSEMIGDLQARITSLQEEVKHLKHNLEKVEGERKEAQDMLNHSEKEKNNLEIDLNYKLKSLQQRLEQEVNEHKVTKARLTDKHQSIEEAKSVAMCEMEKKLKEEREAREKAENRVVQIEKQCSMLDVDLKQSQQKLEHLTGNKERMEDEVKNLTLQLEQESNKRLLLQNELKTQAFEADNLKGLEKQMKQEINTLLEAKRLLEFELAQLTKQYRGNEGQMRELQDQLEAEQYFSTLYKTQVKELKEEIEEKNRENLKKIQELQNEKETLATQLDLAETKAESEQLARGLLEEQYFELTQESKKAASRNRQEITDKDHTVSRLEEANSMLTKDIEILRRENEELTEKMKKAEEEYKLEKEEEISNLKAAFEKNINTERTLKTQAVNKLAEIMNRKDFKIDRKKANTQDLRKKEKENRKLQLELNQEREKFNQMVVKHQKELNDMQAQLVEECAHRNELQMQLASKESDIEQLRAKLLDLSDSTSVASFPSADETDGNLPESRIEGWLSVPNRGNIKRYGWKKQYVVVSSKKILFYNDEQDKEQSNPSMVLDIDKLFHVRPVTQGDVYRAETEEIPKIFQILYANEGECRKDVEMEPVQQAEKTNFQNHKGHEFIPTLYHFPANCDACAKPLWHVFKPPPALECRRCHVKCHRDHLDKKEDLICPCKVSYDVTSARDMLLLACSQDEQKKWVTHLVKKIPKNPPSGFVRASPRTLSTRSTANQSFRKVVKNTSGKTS

The term pIC50 denotes −log10 of the IC50, conventionally taken in molar units. Regarding `O=c1ccc(-c2cnc(OCC(F)(F)F)nc2)nn1Cc1cncc(F)c1` [EDG-5506], the “binding, % of control” value in [1] is 93 % of control; in [3], 99 % of control; in data set [4], 100 % of control; in [5], 95 % of control; in data set [6], 100 % of control; in data set [7], 100 % of control. For the same compound, the “binding, % of control” value in data set [9] was 72 % of control; in data set [10], 100 % of control. Besides, the pIC50 in data set [2] is below 4.00. The grip strength result in data set [8] is reported as “no effect”. Moreover, the “ex vivo force inhibition” value in data set [11] is “partial force inhibition”. Further, the Emax was determined as 0% in data set [12], 18.1% in [13], 24.6% in data set [14] and 26.9% in [15]. Further, the “fibrosis in TA and diaphragm muscles” value in data set [16] is recorded as “reduced fibrosis”. The left ventricular fibrosis result in data set [16] is “trend toward lower fibrosis”.
